Data published in the NIST ThermoML archive (doi:10.1016/j.jct.2019.06.018).
± gives the expanded uncertainty stated by the source.

What was measured:
[1] = Crystal; DSC
[2] = Molar enthalpy of transition or fusion; settings: Crystal; DSC

Compound: CC1=NN(c2ccccc2)C(=O)C1 [Edaravone]
- Triple point temperature [1]: 400.15 ± 1.2 K
- Molar enthalpy of transition or fusion [2]: 7.08 ± 0.956 kcal/mol
